Data reported in patent US6841519B1, “Isoxazoline derivatives and herbicides containing the same as the active ingredient” (Kumiai Chemical Industry Co., Ltd., priority 1999, dated 2005).

Legend:
Assay type in all cases: in vivo
[1] = system: Echinochloa crus-galli (L.) Beauv. var. crusgalli (Ec); assay: Test for herbicidal effect by upland foliage treatment (Test Example 3); conditions: 100 g/10 a active ingredient, examined at 14th day
Protocol: Test For Herbicidal Effect By Upland Foliage Treatment
An upland field soil was filed in a plastic pot of 80 cm^2. Seeds of Echinochloa crus-galli (L.) Beauv. var. crusgalli (Ec) were sowed. Breeding was made in a greenhouse for 2 weeks. Wettable powders produced in accordance with the Formulation 1 were diluted with water and sprayed on the whole foliage of plants from above the plants using a small sprayer in an amount of 100 liters per 10 ares so that the amount of each active ingredient became 100 g per 10 ares. Then, breeding was made in the greenhouse, and the herbicidal effect of each wettable powder was examined at the 14th day from the treatment in accordance with the standard shown in Table 40.

[2] = system: Echinochloa oryzicola Vasing. (Eo); assay: Test for herbicidal effect by paddy field soil treatment (Test Example 1); conditions: application amount (active ingredient) 100 g/10 a, examined at the 21st day from the treatment, index per Table 40
Protocol: <Test Example 1> Test For Herbicidal Effect By Paddy Field Soil Treatment A paddy field soil was filled in a plastic pot of 100 cm^2 and subjected to puddling. Then, seeds of Echinochloa oryzicola Vasing. (Eo) were sowed and water was filled in a depth of 3 cm. Next day, wettable powders produced in accordance with the Formulation 1 were diluted with water and dropped on the water surface. The application amount of each wettable powder was 100 g per 10 ares in terms of the active ingredient. Then, breeding was made in a greenhouse, and the herbicidal effect of each wettable powder was examined at the 21st day from the treatment in accordance with the standard shown in Table 40. [table]

[3] = system: Setaria viridis (L.) Beauv. (Se); assay: Test for herbicidal effect by upland field soil treatment (Test Example 2), Se
Protocol: (§1) [table] <Test Example 2> Test For Herbicidal Effect By Upland Field Soil Treatment An upland field soil was filed in a plastic pot of 80 cm^2. Seeds of Echinochloa crus-galli (L.) Beauv. var. crusgall (Ec) and Setaria viridis (L.) Beauv. (Se) were sowed, followed by covering with the same soil. Wettable powders produced in accordance with the Formulation 1 were diluted with water and sprayed uniformly: on the soil surface using a small sprayer, in an amount of 100 liters per 10 ares so that the amount of each active ingredient became 100 g per 10 ares. Then, breeding was made in a greenhouse, and the herbicidal effect of each wettable powder was examined at the 21st day from the treatment in accordance with the standard shown in Table 40.

[4] = system: Echinochloa crus-galli (L.) Beauv. var. crusgall (Ec); assay: Test for herbicidal effect by upland field soil treatment (Test Example 2), Ec
Protocol: as §1

[5] = application amount (active ingredient) 100 g/10 a, examined at the 21st day from the treatment, index per Table 40
[6] = 100 g/10 a active ingredient, examined at 21st day

Structure (SMILES)	Herbicidal effect to Ec [1]	Herbicidal effect to Eo [2]	Herbicidal effect to Se [3, 5]	Herbicidal effect to Ec [4, 5]	Herbicidal effect to Se [3, 6]	Herbicidal effect to Ec [4, 6]
CC1(C)CC(S(=O)(=O)Cc2ccccc2[N+](=O)[O-])=NO1 [Compound 1-142]	4 (A herbicidal effect or phytotoxicity of 70% to less than 90%)	5 (A herbicidal effect or phytotoxicity of 90% or more)	5 (A herbicidal effect or phytotoxicity of 90% or more)	5 (A herbicidal effect or phytotoxicity of 90% or more)	–	–
CC1(C)CC(S(=O)(=O)Cc2cccc(C(F)(F)F)c2)=NO1 [Compound 1-158]	5 (A herbicidal effect or phytotoxicity of 90% or more)	5 (A herbicidal effect or phytotoxicity of 90% or more)	5 (A herbicidal effect or phytotoxicity of 90% or more)	5 (A herbicidal effect or phytotoxicity of 90% or more)	–	–
CC(C)Oc1cccc(F)c1CS(=O)(=O)C1=NOC(C)(C)C1 [Compound 1-570]	5 (A herbicidal effect or phytotoxicity of 90% or more)	5 (A herbicidal effect or phytotoxicity of 90% or more)	–	–	5 (A herbicidal effect or phytotoxicity of 90% or more)	5 (A herbicidal effect or phytotoxicity of 90% or more)
CC1(C)CC(S(=O)(=O)Cc2cc(Cl)ccc2Cl)=NO1 [Compound 1-489]	4 (A herbicidal effect or phytotoxicity of 70% to less than 90%)	5 (A herbicidal effect or phytotoxicity of 90% or more)	5 (A herbicidal effect or phytotoxicity of 90% or more)	5 (A herbicidal effect or phytotoxicity of 90% or more)	–	–
CC1(C)CC(S(=O)(=O)Cc2ccc(F)c(F)c2)=NO1 [Compound 1-497]	5 (A herbicidal effect or phytotoxicity of 90% or more)	5 (A herbicidal effect or phytotoxicity of 90% or more)	5 (A herbicidal effect or phytotoxicity of 90% or more)	5 (A herbicidal effect or phytotoxicity of 90% or more)	–	–
COc1cccc(OC)c1CS(=O)(=O)C1=NOC(C)(C)C1 [Compound 1-535]	4 (A herbicidal effect or phytotoxicity of 70% to less than 90%)	5 (A herbicidal effect or phytotoxicity of 90% or more)	–	–	5 (A herbicidal effect or phytotoxicity of 90% or more)	5 (A herbicidal effect or phytotoxicity of 90% or more)
Cc1cccc(CS(=O)(=O)C2=NOC(C)(C)C2)c1F [Compound 1-187]	5 (A herbicidal effect or phytotoxicity of 90% or more)	5 (A herbicidal effect or phytotoxicity of 90% or more)	5 (A herbicidal effect or phytotoxicity of 90% or more)	5 (A herbicidal effect or phytotoxicity of 90% or more)	–	–
CC1(C)CC(S(=O)(=O)Cc2cc(Br)cc(Br)c2)=NO1 [Compound 1-545]	5 (A herbicidal effect or phytotoxicity of 90% or more)	5 (A herbicidal effect or phytotoxicity of 90% or more)	–	–	5 (A herbicidal effect or phytotoxicity of 90% or more)	5 (A herbicidal effect or phytotoxicity of 90% or more)
CC1(C)CC(S(=O)(=O)Cc2ccc(F)c(F)c2F)=NO1 [Compound 1-507]	4 (A herbicidal effect or phytotoxicity of 70% to less than 90%)	5 (A herbicidal effect or phytotoxicity of 90% or more)	–	–	5 (A herbicidal effect or phytotoxicity of 90% or more)	5 (A herbicidal effect or phytotoxicity of 90% or more)
CC1(C)CC(S(=O)(=O)Cc2cccc(Cl)c2)=NO1 [Compound 1-3]	4 (A herbicidal effect or phytotoxicity of 70% to less than 90%)	5 (A herbicidal effect or phytotoxicity of 90% or more)	5 (A herbicidal effect or phytotoxicity of 90% or more)	5 (A herbicidal effect or phytotoxicity of 90% or more)	–	–
CC1(C)CC(S(=O)(=O)Cc2c(F)c(F)c(F)c(F)c2F)=NO1 [Compound 1-531]	5 (A herbicidal effect or phytotoxicity of 90% or more)	5 (A herbicidal effect or phytotoxicity of 90% or more)	–	–	5 (A herbicidal effect or phytotoxicity of 90% or more)	5 (A herbicidal effect or phytotoxicity of 90% or more)
CC1ON=C(S(=O)(=O)Cc2c(F)cccc2F)C1C (stereo not drawn) [Compound 1-496]	5 (A herbicidal effect or phytotoxicity of 90% or more)	5 (A herbicidal effect or phytotoxicity of 90% or more)	4 (A herbicidal effect or phytotoxicity of 70% to less than 90%)	5 (A herbicidal effect or phytotoxicity of 90% or more)	–	–
CC1(C)CC(S(=O)(=O)Cc2c(Cl)cccc2OC(F)F)=NO1 [Compound 1-561]	4 (A herbicidal effect or phytotoxicity of 70% to less than 90%)	5 (A herbicidal effect or phytotoxicity of 90% or more)	–	–	5 (A herbicidal effect or phytotoxicity of 90% or more)	5 (A herbicidal effect or phytotoxicity of 90% or more)
CC1(C2CC2)CC(S(=O)(=O)Cc2ccccc2OC(F)F)=NO1 (stereo not drawn) [Compound 1-562]	4 (A herbicidal effect or phytotoxicity of 70% to less than 90%)	5 (A herbicidal effect or phytotoxicity of 90% or more)	–	–	5 (A herbicidal effect or phytotoxicity of 90% or more)	5 (A herbicidal effect or phytotoxicity of 90% or more)
CC1(C)CC(S(=O)(=O)Cc2ccc(F)c(C(F)(F)F)c2)=NO1 [Compound 1-541]	4 (A herbicidal effect or phytotoxicity of 70% to less than 90%)	5 (A herbicidal effect or phytotoxicity of 90% or more)	–	–	5 (A herbicidal effect or phytotoxicity of 90% or more)	5 (A herbicidal effect or phytotoxicity of 90% or more)
CC1(C)CC(S(=O)(=O)Cc2cccc(C(F)(F)F)c2F)=NO1 [Compound 1-515]	5 (A herbicidal effect or phytotoxicity of 90% or more)	5 (A herbicidal effect or phytotoxicity of 90% or more)	–	–	5 (A herbicidal effect or phytotoxicity of 90% or more)	5 (A herbicidal effect or phytotoxicity of 90% or more)
CC1(C)CC(S(=O)(=O)Cc2ccc(Br)cc2F)=NO1 [Compound 1-516]	5 (A herbicidal effect or phytotoxicity of 90% or more)	5 (A herbicidal effect or phytotoxicity of 90% or more)	–	–	5 (A herbicidal effect or phytotoxicity of 90% or more)	5 (A herbicidal effect or phytotoxicity of 90% or more)
CC1(C)CC(S(=O)(=O)Cc2ccc(Cl)cc2Cl)=NO1 [Compound 1-488]	4 (A herbicidal effect or phytotoxicity of 70% to less than 90%)	5 (A herbicidal effect or phytotoxicity of 90% or more)	4 (A herbicidal effect or phytotoxicity of 70% to less than 90%)	5 (A herbicidal effect or phytotoxicity of 90% or more)	–	–
CC1(C)CC(S(=O)(=O)Cc2cc(Cl)cc(Cl)c2)=NO1 [Compound 1-492]	4 (A herbicidal effect or phytotoxicity of 70% to less than 90%)	5 (A herbicidal effect or phytotoxicity of 90% or more)	5 (A herbicidal effect or phytotoxicity of 90% or more)	5 (A herbicidal effect or phytotoxicity of 90% or more)	–	–
CC(C)COc1cccc(Cl)c1CS(=O)(=O)C1=NOC(C)(C)C1 [Compound 1-572]	4 (A herbicidal effect or phytotoxicity of 70% to less than 90%)	5 (A herbicidal effect or phytotoxicity of 90% or more)	–	–	5 (A herbicidal effect or phytotoxicity of 90% or more)	5 (A herbicidal effect or phytotoxicity of 90% or more)
C#CCOc1cccc(Cl)c1CS(=O)(=O)C1=NOC(C)(C)C1 [Compound 1-591]	4 (A herbicidal effect or phytotoxicity of 70% to less than 90%)	5 (A herbicidal effect or phytotoxicity of 90% or more)	–	–	5 (A herbicidal effect or phytotoxicity of 90% or more)	5 (A herbicidal effect or phytotoxicity of 90% or more)
